Experimental data reported in PubChem BioAssay AID1794818.
pIC50: −log10 of the molar value. Calls of active or inactive are those of the source.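 The calls were made as follows: active = dose-dependent response absent in non-induced cells, with a sigmoidal fit giving a valid half-maximal concentration; inactive = the rest.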

Target: Chromaffin granule amine transporter (Homo sapiens) (UniProt P54219)
Assay: SLC18A1 vesicular uptake inhibitors, dose response, FFN206 fluorescent substrate, HEK-293 overexpressing cells (AID 1794818)
Settings: HEK-293 SLC18A1 OE, FFN206 uptake fluorescence

Sequence of Chromaffin granule amine transporter (Homo sapiens) (P54219 whole entry, looked up): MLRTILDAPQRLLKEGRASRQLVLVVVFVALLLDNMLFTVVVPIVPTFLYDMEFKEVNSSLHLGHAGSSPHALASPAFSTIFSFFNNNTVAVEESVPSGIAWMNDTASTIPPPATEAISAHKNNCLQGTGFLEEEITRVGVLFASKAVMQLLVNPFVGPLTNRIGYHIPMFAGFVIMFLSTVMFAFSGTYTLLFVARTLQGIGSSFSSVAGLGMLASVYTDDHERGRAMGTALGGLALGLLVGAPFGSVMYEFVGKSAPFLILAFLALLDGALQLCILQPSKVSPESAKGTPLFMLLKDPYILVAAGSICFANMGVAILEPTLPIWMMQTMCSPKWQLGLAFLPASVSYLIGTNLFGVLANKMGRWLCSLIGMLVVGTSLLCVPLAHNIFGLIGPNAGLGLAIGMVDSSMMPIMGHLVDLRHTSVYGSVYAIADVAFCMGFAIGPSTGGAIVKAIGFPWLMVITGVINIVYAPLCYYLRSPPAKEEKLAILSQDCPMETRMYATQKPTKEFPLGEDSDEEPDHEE

Compound | pIC50 | outcome
COC(=O)[C@H]1[C@H]2C[C@@H]3c4[nH]c5cc(OC)ccc5c4CCN3C[C@H]2C[C@@H](OC(=O)c2cc(OC)c(OC)c(OC)c2)[C@@H]1OC | 7.30 | –
COc1cc2c(cc1OC)C1CC(=O)C(CC(C)C)CN1CC2 (stereo not drawn) | – | inactive
CNc1ccc2c(CCN)cc(=O)oc2c1 | 5.70 | –
